According to ChEMBL document CHEMBL4699668, “Discovery and Structure-Activity Relationships of Novel Template, Truncated 1'-Homologated Adenosine Derivatives as Pure Dual PPARγ/δ Modulators” (J Med Chem, 2020):

Key:
[1] = target: T1, Peroxisome proliferator-activated receptor gamma (Homo sapiens, UniProt P37231)
T1 sequence (P37231 whole entry): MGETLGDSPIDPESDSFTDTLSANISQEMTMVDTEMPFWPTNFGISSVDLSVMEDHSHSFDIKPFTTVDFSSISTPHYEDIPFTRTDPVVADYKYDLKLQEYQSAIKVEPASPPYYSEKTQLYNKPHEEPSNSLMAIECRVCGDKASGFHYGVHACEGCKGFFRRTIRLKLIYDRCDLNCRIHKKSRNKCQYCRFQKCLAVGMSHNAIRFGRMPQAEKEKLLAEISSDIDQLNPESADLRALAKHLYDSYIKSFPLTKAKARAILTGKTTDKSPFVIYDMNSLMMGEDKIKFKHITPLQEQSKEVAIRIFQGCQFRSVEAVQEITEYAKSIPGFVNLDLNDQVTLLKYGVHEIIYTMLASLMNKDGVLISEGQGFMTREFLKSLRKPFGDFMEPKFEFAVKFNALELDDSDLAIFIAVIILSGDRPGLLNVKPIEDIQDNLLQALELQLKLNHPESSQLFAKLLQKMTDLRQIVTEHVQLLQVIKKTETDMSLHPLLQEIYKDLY
Description: Binding affinity to PPAR-gamma (unknown origin) by TR-FRET assay

[2] = target: T2, Peroxisome proliferator-activated receptor delta (Homo sapiens, UniProt Q03181)
T2 sequence (Q03181 whole entry): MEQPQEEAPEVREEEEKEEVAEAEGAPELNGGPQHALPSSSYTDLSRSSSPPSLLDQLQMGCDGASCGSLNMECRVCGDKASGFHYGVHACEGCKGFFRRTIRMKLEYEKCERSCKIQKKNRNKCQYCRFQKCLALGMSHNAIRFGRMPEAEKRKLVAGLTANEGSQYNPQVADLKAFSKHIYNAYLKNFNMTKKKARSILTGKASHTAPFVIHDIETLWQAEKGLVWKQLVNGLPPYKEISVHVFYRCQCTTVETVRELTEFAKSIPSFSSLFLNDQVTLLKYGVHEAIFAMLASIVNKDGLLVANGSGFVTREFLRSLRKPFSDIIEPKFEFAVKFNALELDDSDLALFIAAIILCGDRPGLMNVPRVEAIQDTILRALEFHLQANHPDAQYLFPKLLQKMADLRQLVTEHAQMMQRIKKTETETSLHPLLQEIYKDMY
Description: Binding affinity to PPAR-delta (unknown origin) by TR-FRET assay

Structure (SMILES) | Ki [1] [µM] | Ki [2] [µM]
CC#Cc1nc(NCc2cccc(F)c2)c2ncn(C[C@@H]3SC[C@@H](O)[C@H]3O)c2n1 | 7.66 | –
CC#Cc1nc(NCc2cccc(I)c2)c2ncn(C[C@@H]3SC[C@@H](O)[C@H]3O)c2n1 | 7.3 | –
O[C@@H]1[C@H](O)CO[C@H]1Cn1cnc2c(NCc3cccc(Br)c3)nc(Cl)nc21 | 9.55 | 1.43
O[C@@H]1[C@H](O)CS[C@H]1Cn1cnc2c(NCc3cccc(F)c3)nc(Cl)nc21 | 3.89 | 1.91
O[C@@H]1[C@H](O)CO[C@H]1Cn1cnc2c(NCc3cccc(Cl)c3)nc(Cl)nc21 | 7.66 | 0.504
CC#Cc1nc(NCc2cccc(Br)c2)c2ncn(C[C@@H]3SC[C@@H](O)[C@H]3O)c2n1 | 7.04 | –
O[C@@H]1[C@H](O)CS[C@H]1Cn1cnc2c(NCc3cccc(Br)c3)nc(Cl)nc21 | 4.07 | 0.592
O[C@@H]1[C@H](O)CS[C@H]1n1cnc2c(NCc3cccc(I)c3)nc(Cl)nc21 | – | 0.0106
